This note sets out measurements from patent publication US20100035926A1, “PYRAZOLE DERIVATIVES AS NON-STEROIDAL GLUCOCORTICOID RECEPTOR LIGANDS” (priority 2006, published 2010).

Some results are limits rather than exact numbers.

The target of one assay is T1, GR (Homo sapiens, UniProt P04150).
T1 construct: endogenous in cells; host or cells: A549 (human lung carcinoma, ECACC No. 86012804), stably transfected with reporter plasmids only
T1 sequence (P04150 1-777): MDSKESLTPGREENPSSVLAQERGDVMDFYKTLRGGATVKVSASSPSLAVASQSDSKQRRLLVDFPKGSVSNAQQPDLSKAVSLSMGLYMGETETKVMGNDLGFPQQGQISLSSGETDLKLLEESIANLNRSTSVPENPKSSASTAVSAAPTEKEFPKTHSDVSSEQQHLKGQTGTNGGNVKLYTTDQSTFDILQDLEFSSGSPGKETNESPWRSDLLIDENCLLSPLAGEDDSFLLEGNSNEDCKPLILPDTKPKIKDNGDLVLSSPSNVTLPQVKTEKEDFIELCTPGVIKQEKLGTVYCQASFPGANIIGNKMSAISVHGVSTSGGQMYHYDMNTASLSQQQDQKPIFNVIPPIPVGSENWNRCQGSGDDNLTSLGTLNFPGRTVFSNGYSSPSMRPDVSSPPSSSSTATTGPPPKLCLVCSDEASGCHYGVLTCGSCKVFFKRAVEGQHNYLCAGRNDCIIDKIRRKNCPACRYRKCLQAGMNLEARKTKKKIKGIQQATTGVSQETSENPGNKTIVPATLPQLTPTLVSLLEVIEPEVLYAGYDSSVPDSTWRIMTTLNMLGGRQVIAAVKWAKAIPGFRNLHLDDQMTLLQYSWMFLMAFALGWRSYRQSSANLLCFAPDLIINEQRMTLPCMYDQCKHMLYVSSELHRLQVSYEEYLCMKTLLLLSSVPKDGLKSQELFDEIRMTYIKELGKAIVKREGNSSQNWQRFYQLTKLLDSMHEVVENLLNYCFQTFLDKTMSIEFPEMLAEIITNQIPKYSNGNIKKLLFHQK
Description: GR Agonist Assay - MMTV Assay (A549 MMTV cells, renilla luciferase reporter). The class given is cell-based. To be noted: 6 h, agonists, read-out: average maximum asymptote in the MMTV agonist assay. An outline of the steps:
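Stably transfected A549 MMTV cells carry a GR-driven luciferase reporter. Cells at 0.1×10^6/ml in DMEM with 10% FCS and 25 mM HEPES were added to wells containing compound. After detection reagent, plates were held about 15 mins at room temperature and luminescence was read.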

In another assay the target is T2, Progesterone Receptor (Homo sapiens, UniProt P06401).
T2 construct: expressed in transfected cells; host or cells: CV-1 cells transduced with PRb-BacMam and MMTV-BacMam
T2 sequence (P06401 1-933): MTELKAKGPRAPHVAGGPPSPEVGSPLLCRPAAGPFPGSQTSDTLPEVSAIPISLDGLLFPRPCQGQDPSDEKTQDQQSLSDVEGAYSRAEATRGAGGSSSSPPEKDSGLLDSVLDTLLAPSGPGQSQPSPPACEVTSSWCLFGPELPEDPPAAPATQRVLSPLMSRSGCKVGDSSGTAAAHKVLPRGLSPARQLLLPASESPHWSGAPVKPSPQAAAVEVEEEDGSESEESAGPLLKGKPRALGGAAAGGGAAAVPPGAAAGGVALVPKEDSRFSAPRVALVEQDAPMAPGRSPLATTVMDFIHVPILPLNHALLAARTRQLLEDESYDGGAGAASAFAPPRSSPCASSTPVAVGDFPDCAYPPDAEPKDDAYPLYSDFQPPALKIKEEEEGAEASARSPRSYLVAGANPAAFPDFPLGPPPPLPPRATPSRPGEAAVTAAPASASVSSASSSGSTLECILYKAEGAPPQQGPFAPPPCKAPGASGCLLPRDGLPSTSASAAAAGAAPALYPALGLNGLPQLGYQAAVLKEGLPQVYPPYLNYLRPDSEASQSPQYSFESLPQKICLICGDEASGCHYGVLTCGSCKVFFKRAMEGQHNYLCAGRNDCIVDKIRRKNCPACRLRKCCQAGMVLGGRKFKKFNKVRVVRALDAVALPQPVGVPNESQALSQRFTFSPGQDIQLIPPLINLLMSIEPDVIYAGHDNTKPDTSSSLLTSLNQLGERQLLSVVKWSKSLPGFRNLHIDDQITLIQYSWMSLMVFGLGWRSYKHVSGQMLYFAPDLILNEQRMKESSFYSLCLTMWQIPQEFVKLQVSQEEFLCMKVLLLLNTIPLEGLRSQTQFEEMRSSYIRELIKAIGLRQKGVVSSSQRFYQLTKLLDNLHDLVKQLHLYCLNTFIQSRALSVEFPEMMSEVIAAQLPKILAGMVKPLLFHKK
Briefly: Assay for Progesterone Receptor Agonist Activity (CV-1 cells, PRb-BacMam, MMTV-BacMam). To be noted: at least once in this assay, read-out: progesterone receptor agonist pEC50 (converted). The format is cell-based.

In another assay the target is T3, glucocorticoid receptor (Homo sapiens, UniProt P04150).
T3 construct: a partially purified full length glucocorticoid receptor
T3 sequence (P04150 1-777): T1 sequence (P04150 1-777)
Briefly: Glucocorticoid Receptor Binding Assay (fluorescence polarisation, displacement of Alexa 555 labelled dexamethasone derivative). To be noted: at least once in this assay; read-out: glucocorticoid binding pIC50 (converted). The procedure, abridged:
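Partially purified full-length GR incubated with test compound and fluorescent dexamethasone plus GR-stabilising buffer components, 2 hr at room temperature in the dark. Binding scored as displacement of tracer, read as decrease in fluorescence polarisation.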

For `Nc1c(C(=O)NCC(O)(CN(CCF)C(=O)c2ccccc2)C(F)(F)F)cnn1-c1ccc(F)cc1` (racemic) [Example 1 (racemic), 5-Amino-1-(4-fluorophenyl)-N-(3,3,3-trifluoro-2-{[(2-fluoroethyl)(phenylcarbonyl)amino]methyl}-2-hydroxypropyl)-1H-pyrazole-4-carboxamide], at GR, the Emax is at least 40%. For the same compound, the EC50 on Progesterone Receptor is over 1000 nM. In addition, on glucocorticoid receptor, the IC50 was under 1000 nM.

Take `Nc1c(C(=O)NCC(O)(CN(CCF)C(=O)c2ccccc2F)C(F)(F)F)cnn1-c1ccc(F)cc1` (racemic) [Example 2 (racemic), 5-Amino-1-(4-fluorophenyl)-N-[3,3,3-trifluoro-2-([(2-fluoroethyl)[(2-fluorophenyl)carbonyl]amino]methyl)-2-hydroxypropyl]-1H-pyrazole-4-carboxamide]: the Emax at GR is at least 40%. Also, at Progesterone Receptor, the EC50 is over 1000 nM. Further, the IC50 on glucocorticoid receptor is under 1000 nM.

In the case of `CCN(CC(O)(CNC(=O)c1cnn(-c2ccc(F)cc2)c1N)C(F)(F)F)C(=O)c1cccc(F)c1F` (racemic) [Example 5 (racemic), 5-Amino-N-(2-{[[(2,3-difluorophenyl)carbonyl](ethyl)amino]methyl}-3,3,3-trifluoro-2-hydroxypropyl)-1-(4-fluorophenyl)-1H-pyrazole-4-carboxamide], on GR, the Emax was at least 40%. Besides, the EC50 on Progesterone Receptor is over 1000 nM. The IC50 at glucocorticoid receptor is under 1000 nM.
